Test results reported in patent publication US20230118795A1, “ARYL OR HETEROARYL PYRIDONE OR PYRIMIDINE DERIVATIVE, PREPARATION METHOD AND USE THEREOF” (SUZHOU ZELGEN BIOPHARMACEUTICALS CO., LTD., priority 2020, published 2023).
Where two headings read alike, the source gives them in different places.

How the values were obtained:
[1] = Pharmacokinetic test in mice, plasma concentration by LC/MS/MS; assay type: in vivo; settings: male ICR mice, 30 mg/kg by gavage, CMC/TW80 carrier, n = 4, mean
Protocol: Evaluation of Pharmacokinetic Tests in Mice
Male ICR mice with a body weight of about 20-30 g, were given 30 mg/kg of solutions of compounds of Examples 10B, 16B, 18A, 63B and 78B of the present invention [CMC/TW80 as carrier] by gavage after fasting overnight. Blood samples were collected at 0.5, 1.0, 2.0, 4.0, 6.0, 8.0, 12 and 24 hours after the compound was administrated, and the concentrations of the compound in plasma were determined by LC/MS/MS.

[2] = test system: NCI-H358 (KRAS^G12C mutation) cell; test: Cell assay of antiproliferative activity against NCI-H358 cell (Celltiter-Glo, 5 days); assay type: cell-based; settings: 5 days incubation
In short: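 KRAS G12C NCI-H358 cells were plated in 384-well format and incubated overnight before compound addition. Compounds were added as a 10-point series (diluted from 50 μM to 0.003 μM before transfer) and incubated 5 days. Viability by CellTiter-Glo luminescence, with IC50 from curve fitting.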

[3] = test system: NCI-H358 tumor cells; test: H358 CDX tumor model, anti-tumor activity; assay type: in vivo; settings: NCI-H358 xenograft in nude mice; for efficacy compared with control compound AMG 510 (in words): 20 mg/Kg; for TV (mm^3) Day 0: Day 0 (at grouping), 20 mg/Kg intragastric every day; for % TGI / % Tumor Growth / TV (mm^3) Day 20: Day 20, 20 mg/Kg intragastric every day
Protocol: 100 uL suspension containing 5×10^6 NCI-H358 tumor cells was subcutaneously injected into the right posterior back of nude mice. The health of the mice was monitored daily. Measurements were started when the tumor grew palpable. The tumor volume calculation formula was adopted: 0.5×L×W2, where L and W represented tumor length and width, respectively. The tumor grew to about 200 mm^3, the mice were randomly divided into groups. Mice were intragastrically administrated the corresponding dose (20 mg/Kg) of the compound's solution every day, and their general status was monitored at the same time. The tumor was measured 2 times a week, and the weight was measured twice a week.

Row | AUC0-t [1] | Cmax [1] | IC50 [2] | AUC0-t ([1]; mouse, po, read-out: AUC0-t) | Cmax ([1]; mouse, po, read-out: Cmax) | SMILES | efficacy compared with control compound AMG 510 (in words) [3] | TV (mm^3) Day 0 [3] | % TGI [3] | % Tumor Growth [3] | TV (mm^3) Day 20 [3]
1 | 1548 ng·h/mL | 1570 ng/mL | 5 nM |  |  | C=CC(=O)N1CCN(c2nc(=O)n(-c3c(C(C)C)cccc3S(C)(=O)=O)c3nc(-c4c(O)cccc4F)c(F)cc23)[C@@H](C)C1 (single isomer, unassigned) [Example 10B] |  |  |  |  | 
2 | 46.1 ng·h/mL | 26.1 ng/mL | 7 nM |  |  | C=CC(=O)N1CCN(c2nc(=O)n(-c3c(C(C)C)ccnc3S(C)(=O)=O)c3nc(-c4c(O)cccc4F)c(F)cc23)[C@@H](C)C1 (single isomer, unassigned) [Example 16B] |  |  |  |  | 
3 |  |  | 13 nM | 219 ng·h/mL | 336 ng/mL | C=CC(=O)N1CCN(c2nc(=O)n(-c3c(S(C)(=O)=O)ccnc3C(C)C)c3nc(-c4c(O)cccc4F)c(F)cc23)[C@@H](C)C1 (single isomer, unassigned) [Example 18A] |  |  |  |  | 
4 | 1540 ng·h/mL | 796 ng/mL | 8 nM |  |  | C=CC(=O)N1C[C@H](C)N(c2nc(=O)n(-c3c(C4CCC4)cccc3S(C)(=O)=O)c3nc(-c4c(O)cccc4F)c(F)cc23)C[C@H]1C (single isomer, unassigned) [Example 63B] | better efficacy than the control compound AMG 510 | 196 mm^3 | 97.8% | 19% | 263 mm^3
5 | 688 ng·h/mL | 722 ng/mL | 7 nM |  |  | C=CC(=O)N1C[C@H](C)N(c2nc(=O)n(-c3c(C(C)C)cccc3S(C)(=O)=O)c3nc(-c4c(O)cccc4F)c(F)cc23)C[C@H]1C (single isomer, unassigned) [Example 78B] | better efficacy than the control compound AMG 510 | 196 mm^3 | 98.5% | 13% | 231 mm^3
6 |  |  |  |  |  | C=CC(=O)N1CCN(c2nc(=O)n(-c3c(C)ccnc3C(C)C)c3nc(-c4c(O)cccc4F)c(F)cc23)[C@@H](C)C1 [AMG510, reference compound] |  | 196 mm^3 | 86.8% | 117% | 437 mm^3
7 |  |  | > 10000 nM |  |  | C=CC(=O)N1CCN(c2nc(=O)n(-c3cccnc3S(C)(=O)=O)c3nc(-c4c(O)cccc4F)c(F)cc23)CC1CC#N (stereo not drawn) [Example 92, 2-(1-acryloyl-4-(6-fluoro-7-(2-fluoro-6-hydroxyphenyl)-1-(2-(methylsulfonyl)pyridin-3-yl)-2-oxo-1,2-dihydropyridino [2,3-d]pyrimidin-4-yl)piperazin-2-yl) acetonitrile] |  |  |  |  | 
